Data reported in PubChem BioAssay (NCI).
Several values for one entry are separate records, joined by “and”; a condition that tells them apart may be missing. Identical values can stand only once.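 Where inhibition never reached the appropriate level, the endpoint shown equals the highest concentration tested. Otherwise, values were interpolated linearly from a five-concentration, 48-hour dose response in 96-well plates. At the GI50, growth is halved. TGI: concentration producing complete growth inhibition.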 Where a SMILES comes first, the peptide text is derived from it. Bridges are numbered along the chain shown (N, C = ends). [ ]: non-standard residue; d: D form. The star is where a group is joined. ξ: configuration not given here. ξNMePhe(4-NMe2) = CNC(Cc1ccc(N(C)C)cc1)C(=O)O; Picolinoyl(3-OH) = O=C(c1ncccc1O)*; ξPip(4-oxo) = O=C1CCNC(C(=O)O)C1; Phg = N[CH](C(=O)O)c1ccccc1; Abu = CC[CH](N)C(=O)O

Columns and labels:
Experiment in all cases: growth of human tumour cells (NCI), 48 h
T-47D breast = tested on: T-47D breast
HL-60(TB) leukemia = tested on: HL-60(TB) leukemia
PC-3 prostate = tested on: PC-3 prostate
SW-620 colon = tested on: SW-620 colon
A498 renal = tested on: A498 renal
CCRF-CEM leukemia = tested on: CCRF-CEM leukemia
M14 melanoma = tested on: M14 melanoma
U251 CNS = tested on: U251 CNS
NCI-H460 lung = tested on: NCI-H460 lung
786-0 renal = tested on: 786-0 renal
SF-268 CNS = tested on: SF-268 CNS
SNB-19 CNS = tested on: SNB-19 CNS
MCF7 breast = tested on: MCF7 breast
SK-OV-3 ovarian = tested on: SK-OV-3 ovarian
HT29 colon = tested on: HT29 colon
MOLT-4 leukemia = tested on: MOLT-4 leukemia
KM12 colon = tested on: KM12 colon
ACHN renal = tested on: ACHN renal
SK-MEL-28 melanoma = tested on: SK-MEL-28 melanoma
SN12C renal = tested on: SN12C renal
HOP-62 NSCLC = tested on: HOP-62 NSCLC
UACC-62 melanoma = tested on: UACC-62 melanoma
DU-145 prostate = tested on: DU-145 prostate
OVCAR-4 ovarian = tested on: OVCAR-4 ovarian
UO-31 renal = tested on: UO-31 renal
LOX IMVI melanoma = tested on: LOX IMVI melanoma
MDA-MB-231 breast = tested on: MDA-MB-231 breast
SF-295 CNS = tested on: SF-295 CNS
EKVX NSCLC = tested on: EKVX NSCLC
COLO 205 colon = tested on: COLO 205 colon
HCT-15 colon = tested on: HCT-15 colon
SK-MEL-5 melanoma = tested on: SK-MEL-5 melanoma
K-562 leukemia = tested on: K-562 leukemia
NCI/ADR-RES ovarian = tested on: NCI/ADR-RES ovarian
HS 578T breast = tested on: HS 578T breast
NCI-H23 lung = tested on: NCI-H23 lung
RPMI-8226 leukemia = tested on: RPMI-8226 leukemia
HCT-116 colon = tested on: HCT-116 colon
UACC-257 melanoma = tested on: UACC-257 melanoma
HCC-2998 colon = tested on: HCC-2998 colon
OVCAR-8 ovarian = tested on: OVCAR-8 ovarian
NCI-H522 lung = tested on: NCI-H522 lung
TK-10 renal = tested on: TK-10 renal
SK-MEL-2 melanoma = tested on: SK-MEL-2 melanoma
MDA-MB-435 = tested on: MDA-MB-435
OVCAR-3 ovarian = tested on: OVCAR-3 ovarian
A549 NSCLC = tested on: A549 NSCLC
BT-549 breast = tested on: BT-549 breast
OVCAR-5 ovarian = tested on: OVCAR-5 ovarian
RXF 393 renal = tested on: RXF 393 renal
MALME-3M melanoma = tested on: MALME-3M melanoma
IGROV1 ovarian = tested on: IGROV1 ovarian
NCI-H226 lung = tested on: NCI-H226 lung
CAKI-1 renal = tested on: CAKI-1 renal
HOP-92 NSCLC = tested on: HOP-92 NSCLC
SF-539 CNS = tested on: SF-539 CNS

Nc1ncnc2c(C3OC(CO)C(O)C3O)nsc12 (centres undefined)
GI50 (T-47D breast): < 0.0162 µM
TGI (T-47D breast): > 48.6 µM
GI50 (HL-60(TB) leukemia): 1.52 µM
TGI (HL-60(TB) leukemia): 7.5 µM
GI50 (PC-3 prostate): 4.6 µM
TGI (SW-620 colon): > 100 µM
TGI (A498 renal): 1.41 µM
TGI (CCRF-CEM leukemia): 16.5 µM and > 100 µM
TGI (M14 melanoma): > 75 µM
TGI (U251 CNS): > 100 µM
TGI (NCI-H460 lung): > 100 µM
TGI (786-0 renal): > 100 µM
TGI (SF-268 CNS): > 100 µM
TGI (SNB-19 CNS): > 100 µM
TGI (MCF7 breast): > 100 µM
GI50 (SK-OV-3 ovarian): 3.25 µM
TGI (SK-OV-3 ovarian): 20.3 µM
TGI (HT29 colon): > 100 µM

CC(C)C[C@@H]1NC(=O)[C@@H]2CCCN2C(=O)[C@@H]2CCCN2C(=O)[C@H](CC(C)C)NC(=O)[C@H](CO)NC(=O)[C@H](CCCCN)NC(=O)[C@H]([C@H](C)O)NC(=O)[C@@H]2CCCC[C@@H](NC1=O)C(=O)N[C@@H](Cc1ccccc1)C(=O)N1CCC[C@H]1C(=O)N[C@@H](CC(=O)O)C(=O)NCC(=O)N[C@@H](CCCN=C(N)N)C(=O)N2
GI50 (MOLT-4 leukemia): > 50 µM
TGI (MOLT-4 leukemia): > 50 µM
GI50 (KM12 colon): > 50 µM
TGI (KM12 colon): > 50 µM
GI50 (T-47D breast): > 50 µM
TGI (T-47D breast): > 50 µM
GI50 (ACHN renal): > 50 µM
TGI (ACHN renal): > 50 µM
GI50 (SK-MEL-28 melanoma): > 50 µM
TGI (SK-MEL-28 melanoma): > 50 µM
GI50 (PC-3 prostate): > 50 µM
TGI (PC-3 prostate): > 50 µM
GI50 (SN12C renal): > 50 µM
TGI (SN12C renal): > 50 µM
GI50 (SW-620 colon): > 50 µM
TGI (SW-620 colon): > 50 µM
GI50 (HOP-62 NSCLC): > 50 µM
TGI (HOP-62 NSCLC): > 50 µM
GI50 (UACC-62 melanoma): > 50 µM
TGI (UACC-62 melanoma): > 50 µM
GI50 (DU-145 prostate): > 50 µM
TGI (DU-145 prostate): > 50 µM
GI50 (OVCAR-4 ovarian): > 50 µM
TGI (OVCAR-4 ovarian): > 50 µM
GI50 (CCRF-CEM leukemia): > 50 µM
TGI (CCRF-CEM leukemia): > 50 µM
GI50 (UO-31 renal): > 50 µM
TGI (UO-31 renal): > 50 µM
GI50 (LOX IMVI melanoma): > 50 µM
TGI (LOX IMVI melanoma): > 50 µM
GI50 (MDA-MB-231 breast): > 50 µM
TGI (MDA-MB-231 breast): > 50 µM
GI50 (SF-295 CNS): > 50 µM
TGI (SF-295 CNS): > 50 µM
GI50 (EKVX NSCLC): > 50 µM
TGI (EKVX NSCLC): > 50 µM
GI50 (COLO 205 colon): > 50 µM
TGI (COLO 205 colon): > 50 µM
GI50 (HCT-15 colon): > 50 µM
TGI (HCT-15 colon): > 50 µM
GI50 (SK-MEL-5 melanoma): > 50 µM
TGI (SK-MEL-5 melanoma): > 50 µM
GI50 (U251 CNS): > 50 µM
TGI (U251 CNS): > 50 µM
GI50 (K-562 leukemia): > 50 µM
TGI (K-562 leukemia): > 50 µM
GI50 (NCI-H460 lung): > 50 µM
TGI (NCI-H460 lung): > 50 µM
GI50 (NCI/ADR-RES ovarian): > 50 µM
TGI (NCI/ADR-RES ovarian): > 50 µM
GI50 (HS 578T breast): > 50 µM
TGI (HS 578T breast): > 50 µM
GI50 (NCI-H23 lung): > 50 µM
TGI (NCI-H23 lung): > 50 µM
GI50 (RPMI-8226 leukemia): > 50 µM
TGI (RPMI-8226 leukemia): > 50 µM
GI50 (786-0 renal): > 50 µM
TGI (786-0 renal): > 50 µM
GI50 (SF-268 CNS): > 50 µM
TGI (SF-268 CNS): > 50 µM
GI50 (HCT-116 colon): > 50 µM
TGI (HCT-116 colon): > 50 µM
GI50 (SNB-19 CNS): > 50 µM
TGI (SNB-19 CNS): > 50 µM
GI50 (UACC-257 melanoma): > 50 µM
TGI (UACC-257 melanoma): > 50 µM
GI50 (HCC-2998 colon): > 50 µM
TGI (HCC-2998 colon): > 50 µM
GI50 (OVCAR-8 ovarian): > 50 µM
TGI (OVCAR-8 ovarian): > 50 µM
GI50 (NCI-H522 lung): > 50 µM
TGI (NCI-H522 lung): > 50 µM
GI50 (TK-10 renal): > 50 µM
TGI (TK-10 renal): > 50 µM
GI50 (SK-MEL-2 melanoma): > 50 µM
TGI (SK-MEL-2 melanoma): > 50 µM
GI50 (MCF7 breast): > 50 µM
TGI (MCF7 breast): > 50 µM
GI50 (MDA-MB-435): > 50 µM
TGI (MDA-MB-435): > 50 µM
GI50 (OVCAR-3 ovarian): > 50 µM
TGI (OVCAR-3 ovarian): > 50 µM
GI50 (SK-OV-3 ovarian): > 50 µM
TGI (SK-OV-3 ovarian): > 50 µM
GI50 (A549 NSCLC): > 50 µM
TGI (A549 NSCLC): > 50 µM
GI50 (BT-549 breast): > 50 µM
TGI (BT-549 breast): > 50 µM
GI50 (OVCAR-5 ovarian): > 50 µM
TGI (OVCAR-5 ovarian): > 50 µM
GI50 (RXF 393 renal): > 50 µM
TGI (RXF 393 renal): > 50 µM
GI50 (MALME-3M melanoma): > 50 µM
TGI (MALME-3M melanoma): > 50 µM
GI50 (IGROV1 ovarian): > 50 µM
TGI (IGROV1 ovarian): > 50 µM
GI50 (NCI-H226 lung): > 50 µM
TGI (NCI-H226 lung): > 50 µM
GI50 (CAKI-1 renal): > 50 µM
TGI (CAKI-1 renal): > 50 µM
GI50 (HT29 colon): > 50 µM
TGI (HT29 colon): > 50 µM
GI50 (HOP-92 NSCLC): > 50 µM
TGI (HOP-92 NSCLC): > 50 µM
GI50 (SF-539 CNS): > 50 µM
TGI (SF-539 CNS): > 50 µM

CCC1NC(=O)C(NC(=O)c2ncccc2O)C(C)OC(=O)C(c2ccccc2)NC(=O)C2CC(=O)CCN2C(=O)C(Cc2ccc(N(C)C)cc2)N(C)C(=O)C2CCCN2C1=O (centres undefined) (tested in a mixture with another compound) ({Picolinoyl(3-OH)}-T[Abu]P[ξNMePhe(4-NMe2)][ξPip(4-oxo)][Phg]; ester 1-C; configuration not given here)
TGI (NCI-H23 lung): 34.5 µM
TGI (UACC-257 melanoma): 22.3 µM
TGI (BT-549 breast): 53.2 µM
TGI (NCI-H226 lung): 42.1 µM
TGI (HOP-92 NSCLC): 25.5 µM
